Read-outs that look alike come from different tables or passages of the source.
Assays:
[1] = Measurement of thermodynamic solubility; format: physicochemical; settings: for solubility at 24 h: thermodynamic from solid, read-out: solubility in water
Protocol: Thermodynamic solubility for the compounds of the invention listed in Table C is measured by a published literature procedure, e.g., Liping Zhou, et al., J. Pharm. Sci (2007) 96(11): 3052-3071.
The DMSO stocks of test compounds previously dissolved in 25 μL of DMSO (˜10 mM) in mini-prep vial (MPV: Whatman, with PVDF filter and 0.45 μm pore size) chamber were evaporated via a GeneVac HT-4X evaporator for approximately 1 hour, at the guard temperature of 30° C. An aliquot of 250 μL buffer solution (pH 1.0 or 6.8) was added into each MPV chamber containing powders reconstituted from DMSO stock solutions. The MPV filter plungers were pushed down into the chamber until the membrane of the filter plunger slightly touched the surface of the buffer to promote equilibrium between the two compartments and to minimize the adsorption due to non-specific binding of samples during the subsequent 24-hr incubation (at 600 RPM at room temperature). Immediately after the 24-hr incubation, the plungers were further pushed down to the bottom of the chambers. More solution was pushed through the membrane and entered the plunger compartment. The filter/chamber assemblies were then put on a shaker for another 30 minutes at 600 RPM. Afterwards, filtrates were further diluted (1:10) with 50/50 acetonitrile/water solvent followed by a thorough mixing process. Both plates with diluted and undiluted filtrates were analyzed by HPLC and quantified against the four-point standard dilution curve of the same test compound (5 μM, 35 μM, 65 μM and 100 μM, respectively). In the current study, solubility reflects the average of triplicate samples tested at each pH.

[2] = molecular target: T1, HCV NS3-4A serine protease (full-length NS3-4A protein, genotype 1a, strain HCV-1) (Hepatitis C virus genotype 1a, UniProt P26664); test: HCV NS3-4A protease assay; format: biochemical
T1 construct: using the full-length NS3-4A protein (genotype 1a, strain HCV-1)
T1 sequence (P26664 1658-1711): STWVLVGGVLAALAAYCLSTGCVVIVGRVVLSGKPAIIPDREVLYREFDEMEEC
T1 sequence (P26664 1027-1657): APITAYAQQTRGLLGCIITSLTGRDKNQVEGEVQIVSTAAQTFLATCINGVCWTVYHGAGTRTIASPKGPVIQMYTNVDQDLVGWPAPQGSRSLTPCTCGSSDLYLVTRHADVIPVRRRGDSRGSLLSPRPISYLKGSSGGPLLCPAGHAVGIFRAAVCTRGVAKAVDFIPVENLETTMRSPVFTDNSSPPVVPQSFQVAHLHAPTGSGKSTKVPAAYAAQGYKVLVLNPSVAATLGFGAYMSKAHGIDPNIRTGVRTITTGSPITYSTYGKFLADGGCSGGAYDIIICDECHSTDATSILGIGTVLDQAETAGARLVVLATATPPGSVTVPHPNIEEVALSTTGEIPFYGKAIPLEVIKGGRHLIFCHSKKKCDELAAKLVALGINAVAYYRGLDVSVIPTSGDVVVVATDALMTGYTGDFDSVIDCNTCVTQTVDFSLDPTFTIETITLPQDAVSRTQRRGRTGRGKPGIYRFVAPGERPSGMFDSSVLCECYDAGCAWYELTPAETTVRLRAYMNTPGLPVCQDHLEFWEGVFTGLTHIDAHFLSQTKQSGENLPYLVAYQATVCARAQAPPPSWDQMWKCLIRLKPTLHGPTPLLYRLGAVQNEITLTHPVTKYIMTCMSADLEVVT
Protocol: The inhibitory activity of certain compounds of Table A against HCV NS3-4A serine protease is determined in a homogenous assay using the full-length NS3-4A protein (genotype 1a, strain HCV-1) and a commercially available internally-quenched fluorogenic peptide substrate as described by Taliani, M., et al. 1996 Anal. Biochem. 240:60-67, which is incorporated by reference in its entirety.

[3] = pH 1, simulated gastric fluid, pH of about 1
[4] = pH 6.8, aqueous buffer, pH of about 6.8

Compound	solubility at 24 h [1, 3] [µM]	solubility at 24 h [1, 4] [µM]	IC50 ([2]; Protease IC50) [nM]	solubility in water ([1]; pH 1)	solubility in water ([1]; pH 6.8)	IC50 ([2]; read-out: Protease IC50) [nM]
CCCC1(S(=O)(=O)NC(=O)[C@@]2(NC(=O)[C@@H]3C[C@@]4(CN3C(=O)[C@@H](NC(=O)[C@@H](NC(=O)[C@@H]3CCCCN3C(C)C)C3CCCCC3)C(C)(C)C)C(C)(C)C43CCC3)C[C@H]2CC)CC1 [Compound 77, (5R,8S)-7-[(2S)-2-{[(2S)-2-cyclohexyl-2-({[(2S)-1-isopropylpiperidin-2-yl]carbonyl}amino)acetyl]amino}-3,3-dimethylbutanoyl]-N-[(1R,2R)-2-ethyl-1-{[(1-propylcyclopropyl)sulfonyl]carbamoyl}cyclopropyl]-10,10-dimethyl-7-azadispiro[3.0.4.1]decane-8-carboxamide]	≥ 100	≥ 30	2			
C=C[C@@H]1C[C@]1(NC(=O)[C@@H]1C[C@@]2(CN1C(=O)[C@@H](NC(=O)[C@@H](NC(=O)[C@@H]1CCCCN1CC)C1CCCCC1)C(C)(C)C)C(C)(C)C21CCC1)C(=O)NS(=O)(=O)C1(CCC)CC1 [Compound 67, (5R,8S)-7-[(2S)-2-{[(2S)-2-cyclohexyl-2-({[(2S)-1-ethylpiperidin-2-yl]carbonyl}amino)acetyl]amino}-3,3-dimethylbutanoyl]-10,10-dimethyl-N-[(1R,2S)-1-{[(1-propylcyclopropyl)sulfonyl]carbamoyl}-2-vinylcyclopropyl]-7-azadispiro[3.0.4.1]decane-8-carboxamide]	≥ 100	≥ 30	1.5			
C=C[C@@H]1C[C@]1(NC(=O)[C@@H]1C[C@@]2(CN1C(=O)[C@@H](NC(=O)[C@@H](NC(=O)[C@@H]1CCCN1CC)C1CCCCC1)C(C)(C)C)C(C)(C)C21CCC1)C(=O)NS(=O)(=O)C1(C)CC1 [Compound 71, (5R,8S)-7-[(2S)-2-{[(2S)-2-cyclohexyl-2-({[(2S)-1-ethylpyrrolidin-2-yl]carbonyl}amino)acetyl]amino}-3,3-dimethylbutanoyl]-10,10-dimethyl-N-[(1R,2S)-1-{[(1-methylcyclopropyl)sulfonyl]carbamoyl}-2-vinylcyclopropyl]-7-azadispiro[3.0.4.1]decane-8-carboxamide]	≥ 100	≥ 30	0.3			
CC[C@@H]1C[C@]1(NC(=O)[C@@H]1C[C@@]2(CN1C(=O)[C@@H](NC(=O)[C@@H](NC(=O)[C@@H]1CCCN1C(C)C)C1CCCCC1)C(C)(C)C)C(C)(C)C21CCC1)C(=O)NS(=O)(=O)C1(C)CC1 [Compound 82, (5R,8S)-7-[(2S)-2-{[(2S)-2-cyclohexyl-2-({[(2S)-1-isopropylpyrrolidin-2-yl]carbonyl}amino)acetyl]amino}-3,3-dimethylbutanoyl]-N-[(1R,2R)-2-ethyl-1-{[(1-methylcyclopropyl)sulfonyl]carbamoyl}cyclopropyl]-10,10-dimethyl-7-azadispiro[3.0.4.1]decane-8-carboxamide]	≥ 100	≥ 30	2.4			
C=C[C@@H]1C[C@]1(NC(=O)[C@@H]1C[C@@]2(CN1C(=O)[C@@H](NC(=O)[C@@H](NC(=O)[C@@H]1CCCN1CC)C1CCCCC1)C(C)(C)C)C(C)(C)C21CCC1)C(=O)NS(=O)(=O)C1(CCC)CC1 [Compound 69, (5R,8S)-7-[(2S)-2-{[(2S)-2-cyclohexyl-2-({[(2S)-1-ethylpyrrolidin-2-yl]carbonyl}amino)acetyl]amino}-3,3-dimethylbutanoyl]-10,10-dimethyl-N-[(1R,2S)-1-{[(1-propylcyclopropyl)sulfonyl]carbamoyl}-2-vinylcyclopropyl]-7-azadispiro[3.0.4.1]decane-8-carboxamide]	≥ 100	≥ 30	1.5			
C=C[C@@H]1C[C@]1(NC(=O)[C@@H]1C[C@@]2(CN1C(=O)[C@@H](NC(=O)[C@@H](NC(=O)[C@H]1CCCCN1C(C)C)C1CCCCC1)C(C)(C)C)C(C)(C)C21CCC1)C(=O)NS(=O)(=O)C1(C)CC1 [Compound 74, (5R,8S)-7-[(2S)-2-{[(2S)-2-cyclohexyl-2-({[(2R)-1-isopropylpiperidin-2-yl]carbonyl}amino)acetyl]amino}-3,3-dimethylbutanoyl]-10,10-dimethyl-N-[(1R,2S)-1-{[(1-methylcyclopropyl)sulfonyl]carbamoyl}-2-vinylcyclopropyl]-7-azadispiro[3.0.4.1]decane-8-carboxamide]	≥ 100	≥ 30	0.8			
(5R,8S)-7-[(2S)-2-{[(2S)-2-cyclohexyl-2-({[(2S)-1-isopropylpiperidin-2-yl]carbonyl}amino)acetyl]amino}-3,3-dimethylbutanoyl]-N-{(1R,2S)-1-[(cyclopentylsulfonyl)carbamoyl]-2-vinylcyclopropyl}-10,10-dimethyl-7-azadispiro[3.0.4.1]decane-8-carboxamide [Compound 80]				at least 100 micromolar	at least 30 micromolar	
C=C[C@@H]1C[C@]1(NC(=O)[C@@H]1C[C@@]2(CN1C(=O)[C@@H](NC(=O)[C@@H](CC(=O)N1CCCCC1)C(C)(C)C)C(C)(C)C)C(C)(C)C21CCC1)C(=O)NS(=O)(=O)C1CC1 [Compound 60, (5R,8S)-N-{(1R,2S)-1-[(cyclopropylsulfonyl)carba-moyl]-2-vinylcyclopropyl}-7-[(2S)-2-{[(2S)-3,3-dimethyl-2-(2-oxo-2-piperidin-1-ylethyl)butanoyl]amino}-3,3-dimethylbutanoyl]-10,10-dimethyl-7-azadispiro[3.0.4.1]decane-8-carboxamide]						200
C=C[C@@H]1C[C@]1(NC(=O)[C@@H]1C[C@@]2(CN1C(=O)[C@@H](NC(=O)[C@@H](NC(=O)[C@@H]1CCCCN1CCF)C(C)(C)C)C(C)(C)C)C(C)(C)C21CCC1)C(=O)NS(=O)(=O)c1cccc2cc[nH]c12 [Compound 14, (5R,8S)-7-[(2S)-2-{[(2S)-2-({[(2S)-1-(2-fluoroethyl)piperidin-2-yl]carbonyl}amino)-3,3-dimethylbutanoyl]amino}-3,3-dimethylbutanoyl]-N-{(1R,2S)-1-[(1H-indol-7-ylsulfonyl)carbamoyl]-2-vinylcyclopropyl}-10,10-dimethyl-7-azadispiro[3.0.4.1]decane-8-carboxamide]			6.5			
C=C[C@@H]1C[C@]1(NC(=O)[C@@H]1C[C@@]2(CN1C(=O)[C@@H](NC(=O)[C@@H](NC(=O)c1ccncn1)C1CCCCC1)C(C)(C)C)C(C)(C)C21CCC1)C(=O)NS(=O)(=O)C1CC1 [Compound 115, (5R,8S)-7-[(2S)-2-({(2S)-2-cyclohexyl-2-[(pyrimidin-4-ylcarbonyl)amino]acetyl}amino)-3,3-dimethylbutanoyl]-N-{(1R,2S)-1-[(cyclopropylsulfonyl)carba-moyl]-2-vinylcyclopropyl}-10,10-dimethyl-7-azadispiro[3.0.4.1]decane-8-carboxamide]			0.6			
C=C[C@@H]1C[C@]1(NC(=O)[C@@H]1C[C@@]2(CN1C(=O)[C@@H](NC(=O)[C@@H](NS(=O)(=O)Cc1ccccc1)C(C)(C)C)C(C)(C)C)C(C)(C)C21CCC1)C(=O)NS(=O)(=O)C1CC1 [Compound 50, (5R,8S)-7-[(2S)-2-({(2S)-2-[(benzylsulfonyl)amino]-3,3-dimethylbutanoyl}amino)-3,3-dimethylbutanoyl]-N-{(1R,2S)-1-[(cyclopropylsulfonyl)carba-moyl]-2-vinylcyclopropyl}-10,10-dimethyl-7-azadispiro[3.0.4.1]decane-8-carboxamide]						20

— patent US20110182850A1, “ORGANIC COMPOUNDS AND THEIR USES” (priority 2009, published 2011)
